# Source: US20130116323A1, “METHODS OF IMPROVING OR PRESERVING LUNG FUNCTION IN A PATIENT WITH A PULMONARY DISORDER” (The Leland Stanford Junior University, priority 2011, published 2013)
# “Also recorded” adds a separate entry of the source.
# How the values were obtained:
# CF patients [1] = assay: Phase II trial in CF patients: initial 16 subject safety cohort; format: in vivo, human; details: first 16 subject safety cohort
# Method: (§1) A 6-month multi-center phase II clinical trial was performed to evaluate the effect of N-acetylcysteine (PharmaNAC®, BioAdvantex Pharma, Missisauga, Ontario Canada)) 900 mg effervescent tablets taken orally 3 times a day on airway inflammation in CF patients. 70 subjects were randomized to placebo or study drug. Randomization was stratified by study site, baseline FEV1, age, gender, chronic azithromycin, inhaled aztreonam for inhalation solution (AZLI) or tobramycin inhalation solution, USP (TOBI®, Novartis) and ibuprofen use. A cohort of 16 subjects served as an initial safety cohort.
# General objectives of the study included determination of safety, tolerability and efficacy of NAC versus placebo at 0 week, 6 weeks, 12 week and 24 week time points. More specific objectives included evaluation of: (a) effect of NAC on number of pulmonary and sinus exacerbations and antibiotic use, (b) effect of NAC on lung inflammation; (c) effect of NAC on pulmonary function; (d) effect of NAC on weight; (e) effect of NAC on quality of life (QOL) and (f) whether NAC causes pulmonary hypertension if used chronically in high doses.
# Effect of long-term treatment with NAC in promoting the development of pulmonary hypertension (PH) in subjects with cystic fibrosis is examined. A panel of clinical and molecular studies, performed at 6-week intervals, is assessed. […]
# patients with IPF = details: 600 mg NAC three times daily added to prednisone plus azothioprine, one year, versus standard therapy alone; cited from earlier work
# [2] = tested on: Human Neurophil Elastase (HNE); assay: Phase II trial in CF patients: sputum neutrophil elastase activity (airway inflammation); format: in vivo; details: 900 mg orally 3 times a day, 24 weeks, versus placebo
# Method: A 6-month multi-center phase II clinical trial was performed to evaluate the effect of N-acetylcysteine (PharmaNAC®, BioAdvantex Pharma, Missisauga, Ontario Canada)) 900 mg effervescent tablets taken orally 3 times a day on airway inflammation in CF patients. 70 subjects were randomized to placebo or study drug. Randomization was stratified by study site, baseline FEV1, age, gender, chronic azithromycin, inhaled aztreonam for inhalation solution (AZLI) or tobramycin inhalation solution, USP (TOBI®, Novartis) and ibuprofen use. A cohort of 16 subjects served as an initial safety cohort. The primary efficacy endpoint in this study were sputum elastase activity as measured by ELISA assay reflecting lung inflammation. […] The effect of NAC on chronic airway inflammation was measured by examining the change in the log10 of neutrophil elastase activity measured in sputum from enrollment to the end of the trial. The effect of NAC on neutrophil recruitment, lung function, pulmonary and sinus exacerbations, and on weight of CF subjects was measured by: change in the sputum neutrophil count, change in IL-8 in sputum and plasma, change in GSH in whole blood, incidence of pulmonary exacerbations, number of and time to first pulmonary exacerbation, incidence and number of antibiotics for any reason, and change in FEV1. Patient-reported outcomes (PRO) were measured by the CFQ-R and CFRD instruments.
# CF patients [3] = assay: Phase II randomized placebo-controlled trial of oral NAC in CF patients: lung function by spirometry; format: in vivo, human
# Method: A 24-week (6-month) multi-center large clinical trial was designed with randomization stratified to improve balance of baseline characteristics between treatment groups, and to improve precision between group treatment effects.
# as §1
# General objectives of the study included determination of safety, tolerability and efficacy of NAC versus placebo at 0 week, 6 weeks, 12 week and 24 week time points. […]
# (§2) The primary efficacy endpoint in this study were sputum elastase activity as measured by ELISA assay reflecting lung inflammation. […]
# (§3) The effect of NAC on chronic airway inflammation was measured by examining the change in the log10 of neutrophil elastase activity measured in sputum from enrollment to the end of the trial. The effect of NAC on neutrophil recruitment, lung function, pulmonary and sinus exacerbations, and on weight of CF subjects was measured by: change in the sputum neutrophil count, change in IL-8 in sputum and plasma, change in GSH in whole blood, incidence of pulmonary exacerbations, number of and time to first pulmonary exacerbation, incidence and number of antibiotics for any reason, and change in FEV1. Patient-reported outcomes (PRO) were measured by the CFQ-R and CFRD instruments.
# patients with COPD = details: 600 mg oral NAC per day, COPD patients with at least two exacerbations per year for 2 years; cited from earlier work
# CF patients [4] = assay: Phase II trial in CF patients: pulmonary and sinus exacerbations and new antibiotic use; format: in vivo, human; details: 900 mg orally 3 times a day, 24 weeks, versus placebo
# Method: as §1, with “cohort. […]” for “cohort.”
# as §2, §3
# [5] = compared with the stable cysteine disulfide; cited from earlier work
# ARDS and ALI = details: randomized controlled trials; cited from earlier work
# [6] = compared with cysteine; cited from earlier work
# [7] = effects counter to those reported for NAC; cited from earlier work
# [8] = 900 mg orally 3 times a day, 6-month period, versus placebo
Structure (SMILES),adverse events (CF patients [1]),pulmonary hypertension (CF patients [1]),deterioration of DLCO (patients with IPF),deterioration of vital capacity (patients with IPF),"airways inflammation, measured by HNE [2]","FEV1 (lung function) versus baseline (CF patients [3]; 900 mg effervescent tablets orally 3 times a day, 6-month trial period, versus placebo (P=0.02))",FEF (lung function) (CF patients [3]; [8]),FVC (lung function) (CF patients [3]; [8]),preventing deterioration in lung function and exacerbations (patients with COPD),new antibiotic prescriptions (CF patients [4]),number of pulmonary or sinus exacerbations (CF patients [4]),solubility relative to cystine [5],early mortality (ARDS and ALI),stability relative to cysteine [6],bioactive dose relative to NAC [7]
"CC(=O)N[C@@H](CS)C(=O)O [NAC, N-acetylcysteine]",No adverse events,no pulmonary hypertension,slows the deterioration,slows the deterioration,No difference was detected,maintained baseline FEV1; also recorded: maintained lung function,maintained lung function,maintained lung function,ineffective,No difference was detected,No difference was detected,much more soluble,no effect,about 10 times,
"CC(=O)N[C@@H](CSSC[C@H](NC(C)=O)C(=O)O)C(=O)O [oxidized form of NAC, di-N-acetylcysteine]",,,,,,,,,,,,,,,10-100 fold less than NAC
